The source of these data is PubChem BioAssay AID1996.

≈ marks a conversion by molar mass, not a printed value. A value given as a limit tells only on which side of the number the result lay.

The conditions of this series: buffer; pH 7.4; 200.0 µM.
Turning to `CNc1snc(C)c1C(=O)OCC(=O)N(C)Cc1ccccc1`, the solubility (kinetic) was 0.0498 mg/mL (≈ 149 µM).
The same measure for `NS(=O)(=O)c1ccc(CNC(=S)NC2CCCC2)cc1`: 0.0469 mg/mL (≈ 150 µM); for `Cc1ccc(C2CC(=O)C=C(NCc3ccccc3)C2)cc1` (stereo unspecified): 0.0127 mg/mL (≈ 43.6 µM).
Next, `Cc1ccc(NC(=S)N2CCCC2)cc1C`: above 0.0352 mg/mL; `COc1cccc(-c2nc(=S)c3c(o2)CCCC3)c1`: 0.0121 mg/mL (≈ 44.3 µM).
Next, `Cc1ccc2nc(COc3ccc(Cl)cc3)cc(=O)n2c1`: 0.0005 mg/mL (≈ 1.66 µM); `O=[N+]([O-])c1ccc(SCCc2cc[nH+]cc2)cc1.[Cl-]`: 0.0365 mg/mL.
The compound `Cc1noc2ncnc(N3CCCC3)c12` gave a solubility (kinetic) above 0.0306 mg/mL.
Turning to `COc1cc(OC)c(S(=O)(=O)NC(C)C)cc1C(=O)O`, the solubility (kinetic) is above 0.0455 mg/mL.
The same measure for `CC(C)c1ccc(OCC(=O)NC2CCCC2)cc1`: 0.0302 mg/mL (≈ 116 µM); for `CC(=O)N/C(=C\c1ccccc1)C(=O)OCc1ccc(F)cc1`: 0.0434 mg/mL (≈ 139 µM).
The same measure for `CC(=O)NC(C)Cc1cn(Cc2ccccc2)c2ccccc12` (stereo unspecified): above 0.046 mg/mL; for `CC(NCCC1(Cc2ccccc2Cl)CCOC(C)(C)C1)c1cccs1` (stereo unspecified): 0.0463 mg/mL (≈ 118 µM).
The same measure for `O=C1c2cccc3cccc(c23)C(=O)N1Cc1ccccc1`: below 0.0006 mg/mL; for `C=CCc1cccc(CNc2cnc3ccccc3c2)c1O`: below 0.0003 mg/mL; for `O=Cc1ccc(OCCCOc2cccc3cccnc23)cc1`: 0.0377 mg/mL (≈ 123 µM).
